Experimental data reported in patent US20100297109A1, “METHODS FOR INHIBITING FASCIN” (Cornell University, priority 2007, published 2010).

Columns and labels:
Drosophila fascin = target: T1, Drosophila fascin (Drosophila melanogaster, UniProt Q24524); experiment: Migration of fascin siRNA-treated 4T1 cells rescued with Drosophila fascin; type: cell-based; conditions: Drosophila fascin in fascin siRNA-treated 4T1 cells
T1 construct: expressed in transfected cells; host or cells: 4T1 mouse mammary tumor cells treated with fascin siRNAs
T1 sequence (Q24524 1-512): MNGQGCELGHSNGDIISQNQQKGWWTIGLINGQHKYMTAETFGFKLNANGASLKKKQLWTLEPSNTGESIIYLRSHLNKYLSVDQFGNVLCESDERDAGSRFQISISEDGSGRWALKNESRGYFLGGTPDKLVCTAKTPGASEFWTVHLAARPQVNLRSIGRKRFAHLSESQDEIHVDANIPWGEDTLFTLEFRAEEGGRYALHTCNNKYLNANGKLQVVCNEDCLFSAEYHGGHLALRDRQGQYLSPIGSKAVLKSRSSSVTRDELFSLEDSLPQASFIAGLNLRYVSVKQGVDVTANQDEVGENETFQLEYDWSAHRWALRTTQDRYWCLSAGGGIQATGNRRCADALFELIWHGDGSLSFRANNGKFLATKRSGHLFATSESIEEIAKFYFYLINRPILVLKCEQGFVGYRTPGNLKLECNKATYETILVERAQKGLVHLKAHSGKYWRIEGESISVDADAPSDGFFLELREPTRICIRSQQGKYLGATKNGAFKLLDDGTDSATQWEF
Protocol: Boyden Chamber Cell Migration Assay. Cells (5×10^4) suspended in starvation medium were added to the upper chamber of an insert (6.5 mm diameter, 8-micrometer pore size, Becton Dickenson), and the insert was placed in a 24-well dish containing starvation medium with or without 10% FBS (Yang et al. 2005, Shan et al. 2006). When used, inhibitors were added to both chambers. Migration assays were carried out for 4-6 hours and cells were fixed with 3.7% formaldehyde. Cells were stained with crystal violet staining solution, and cells on the upper side of the insert were removed with a cotton swab. Three randomly selected fields (10× objectives) on the lower side of the insert were photographed, and the migrated cells were counted. The migration was expressed as either the average number of migrated cells in a field or as percentage of migrated cells in positive control. Percentage was calculated with the formula P=100×(M−Mnc)/Mpc, where P is the percentage of migrated cells, M is the number of migrated cells, Mnc is the number of migrated cells in negative controls, and Mpc is the number of migrated cells in positive controls.

fascin = fascin (Homo sapiens, UniProt Q16658); experiment: F-actin bundling assay, low-speed centrifugation (F-actin pelleting); type: biochemical; parameters: GST (N); made in house; host or cells: Escherichia coli BL21
Protocol: Whole cell lysates from 4T1 mouse breast tumor cells were made. After preclearing the cell lysate with immobilized neutravidin biotin binding protein (Pierce, IL, USA) to remove biotin and avidin-binding proteins, the cell lysates were loaded to a column packed with the biotin-labeled macroketone (conjugated to neutravidin beads). A control column packed with free biotin and neutravidin beads was run side-by-side. After washing the column with 10 bed volumes of lysis buffer with 300 mM NaCl, the bound proteins were eluted with 0.1 M Glycine-HCl at pH 2.8 according to the manufacturer's instruction. […] Protein Expression and Purification. Recombinant GST-fascin fusion protein was produced in BL21 Escherichia coli. A 1-liter culture was grown to an A600 reading of 1.0 and then induced by addition of 0.3 mM isopropyl 1-thio-D-galactopyranoside (IPTG) for 12 hours at 25° C. Cells were flash frozen and then lysed by sonication in Tris-buffered saline. The supernatant was then incubated with glutathione-Sepharose for 2 h at 4° C. After extensive washing, GST-fascin was eluted and concentrated with a Centricon Plus-20 (Millipore). To remove the GST tag from the fusion protein, beads were incubated with thrombin overnight at 4° C. The supernatant was collected and concentrated. […] Actin bundling activity was measured by low speed centrifugation assay and fluorescence microscopy. […]

[1] = test system: mouse embryonic fibroblast (MEF) cells; experiment: Wound-healing assay, serum-induced migration of MEF cells; type: cell-based; conditions: 200 μM
[2] = test system: human breast tumor MDA-MB-231 cells; experiment: Wound-healing assay, serum-induced migration of MDA-MB-231 cells; type: cell-based; conditions: 20 μM
Protocol: (§1) Cells. Mouse 4T1 mammary tumor cells and human MDA-MB-231 breast tumor cells were obtained from ATCC and have been described previously (Shan et al. 2005, Yang et al. 2005). 4T1 cells were cultured in RPMI 1640 medium supplemented with 10% FBS. MDA-MB-231 cells were cultured in DMEM supplemented with 10% FBS. Wound-healing assay. The wound-healing assay involves observing whether confluent cells can migrate across a scrape or wound in the cell layer. Cell migration assays were performed as described previously (Yang et al. 2005, Shan et al 2006). Tumor cells were plated in a 24-well plate coated with gelatin in standard media. After the cells grew to confluence, wounds were made in the confluent layer of cell using a sterile instrument such as a sterile pipette tip. The cells were washed with Phosphate Buffered Saline (PBS) or other sterile solutions and then the migration was induced by adding medium supplemented with 10% FBS. When the wound for the positive control closed, cells were fixed with 3.7% formaldehyde and stained with crystal violet staining solution. […] Photographs several random regions of the filter facing the second chamber are taken and the number of cells counted to calculate the average number of cells that had transmigrated.

4T1 cells = experiment: Boyden chamber cell migration assay, serum-induced migration of 4T1 cells; type: cell-based, mouse; conditions: FIGS. 1C and 1D
Protocol: as §1, with “media.” for “media. After the cells grew to confluence, wounds were made in the confluent layer of cell using a sterile instrument such as a sterile pipette tip. The cells were washed with Phosphate Buffered Saline (PBS) or other sterile solutions and then the migration was induced by adding medium supplemented with 10% FBS. When the wound for the positive control closed, cells were fixed with 3.7% formaldehyde and stained with crystal violet staining solution.”
Boyden Chamber Cell Migration Assay. […] Three randomly selected fields (10× objectives) on the lower side of the insert were photographed, and the migrated cells were counted. The migration was expressed as either the average number of migrated cells in a field or as percentage of migrated cells in positive control. Percentage was calculated with the formula P=100×(M−Mnc)/Mpc, where P is the percentage of migrated cells, M is the number of migrated cells, Mnc is the number of migrated cells in negative controls, and Mpc is the number of migrated cells in positive controls.

Structure (SMILES): COC1C=CCCCCC(=O)CCC(C)=CC(C)C1O (stereo not drawn) [macroketone, Migrastatin ketone]
- sensitivity of rescued migration (Drosophila fascin): no sensitivity
- fascin-induced bundling of F-actin polymers (fascin; with fascin): significantly decreased
- formation of F-actin bundles, compound alone (fascin; without fascin): had no effect
- effect on serum-induced migration (wound-healing) [1]: had no effect
- inhibition of serum-induced migration (wound-healing) [2]: inhibited the migration
- IC50 (4T1 cells): 100 nM
